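Assay format: 96-well plates, 48-hour exposure. GI50 = concentration required for 50% inhibition of growth. TGI marks complete inhibition of growth.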
Experiments:
Assay in all cases: inhibition of tumour cell growth, NCI panel, 48 h
[1] = tested on: 786-0 renal
[2] = tested on: A498 renal
[3] = tested on: A549 NSCLC
[4] = tested on: ACHN renal
[5] = tested on: CAKI-1 renal
[6] = tested on: CCRF-CEM leukemia
[7] = tested on: COLO 205 colon
[8] = tested on: DLD-1 colon
[9] = tested on: EKVX NSCLC
[10] = tested on: HCC-2998 colon
[11] = tested on: HCT-116 colon
[12] = tested on: HCT-15 colon
[13] = tested on: HL-60(TB) leukemia
[14] = tested on: HOP-18 NSCLC
[15] = tested on: HOP-62 NSCLC
[16] = tested on: HT29 colon
[17] = tested on: IGROV1 ovarian
[18] = tested on: K-562 leukemia
[19] = tested on: KM12 colon
[20] = tested on: KM20L2 colon
[21] = tested on: LOX IMVI melanoma
[22] = tested on: LXFL 529 NSCLC
[23] = tested on: M14 melanoma
[24] = tested on: M19-MEL melanoma
[25] = tested on: MALME-3M melanoma
[26] = tested on: MOLT-4 leukemia
[27] = tested on: NCI-H226 lung
[28] = tested on: NCI-H23 lung
[29] = tested on: NCI-H522 lung
[30] = tested on: OVCAR-3 ovarian
[31] = tested on: OVCAR-4 ovarian
[32] = tested on: OVCAR-5 ovarian
[33] = tested on: OVCAR-8 ovarian
[34] = tested on: RPMI-8226 leukemia
[35] = tested on: SF-268 CNS
[36] = tested on: SF-295 CNS
[37] = tested on: SF-539 CNS
[38] = tested on: SK-MEL-2 melanoma
[39] = tested on: SK-MEL-28 melanoma
[40] = tested on: SK-MEL-5 melanoma
[41] = tested on: SK-OV-3 ovarian
[42] = tested on: SN12C renal
[43] = tested on: SNB-19 CNS
[44] = tested on: SNB-75 CNS
[45] = tested on: SW-620 colon
[46] = tested on: TK-10 renal
[47] = tested on: UACC-257 melanoma
[48] = tested on: UACC-62 melanoma
[49] = tested on: UO-31 renal

**Q.** How did the GI50 [1] turn out when CC(=O)[CH-]C(=O)c1ccccc1.CC(=O)[CH-]C(=O)c1ccccc1.Cl.[O-]CCc1ccccn1.[O-]CCc1ccccn1.[Ti+4] was run?
**A.** Its GI50 is 21.2 µM.

**Q.** And the TGI [1]?
**A.** The TGI was 57 µM.

**Q.** What about the GI50 [2] of the same molecule?
**A.** The GI50 was 28.8 µM.

**Q.** What about the TGI [2] of the same molecule?
**A.** The TGI was 75.1 µM.

**Q.** And the GI50 [3]?
**A.** The GI50 was 27.8 µM.

**Q.** What about the TGI [3] of the same molecule?
**A.** The TGI was 95.9 µM.

**Q.** And the GI50 [4]?
**A.** Its GI50 is 33.4 µM.

**Q.** What about the TGI [4] of the same molecule?
**A.** The TGI was > 100 µM.

**Q.** And the GI50 [5]?
**A.** Its GI50 is 44.1 µM.

**Q.** What about the TGI [5] of the same molecule?
**A.** Its TGI is > 100 µM.

**Q.** And the GI50 [6]?
**A.** The GI50 was 15.9 µM.

**Q.** What about the TGI [6] of the same molecule?
**A.** The TGI was > 100 µM.

**Q.** What about the GI50 [7] of the same molecule?
**A.** The GI50 was 29.3 µM.

**Q.** And the TGI [7]?
**A.** The TGI was 72.2 µM.

**Q.** What about the GI50 [8] of the same molecule?
**A.** Its GI50 is 30.4 µM.

**Q.** What about the TGI [8] of the same molecule?
**A.** Its TGI is > 100 µM.

**Q.** And the GI50 [9]?
**A.** The GI50 was 28.9 µM.

**Q.** And the TGI [9]?
**A.** Its TGI is 78.2 µM.

**Q.** What about the GI50 [10] of the same molecule?
**A.** The GI50 was 26.9 µM.

**Q.** What about the TGI [10] of the same molecule?
**A.** The TGI was 83.6 µM.

**Q.** What about the GI50 [11] of the same molecule?
**A.** The GI50 was 18.9 µM.

**Q.** And the TGI [11]?
**A.** Its TGI is 55.6 µM.

**Q.** What about the GI50 [12] of the same molecule?
**A.** Its GI50 is 46.2 µM.

**Q.** What about the TGI [12] of the same molecule?
**A.** The TGI was > 100 µM.

**Q.** What about the GI50 [13] of the same molecule?
**A.** Its GI50 is 21.2 µM.

**Q.** And the TGI [13]?
**A.** Its TGI is 93.5 µM.

**Q.** What about the GI50 [14] of the same molecule?
**A.** The GI50 was 36.2 µM.

**Q.** And the TGI [14]?
**A.** The TGI was 94.8 µM.

**Q.** And the GI50 [15]?
**A.** Its GI50 is 23.6 µM.

**Q.** What about the TGI [15] of the same molecule?
**A.** The TGI was 47.7 µM.

**Q.** And the GI50 [16]?
**A.** Its GI50 is 22.4 µM.

**Q.** And the TGI [16]?
**A.** The TGI was 77.1 µM.

**Q.** What about the GI50 [17] of the same molecule?
**A.** Its GI50 is 27.2 µM.

**Q.** What about the TGI [17] of the same molecule?
**A.** Its TGI is 75.3 µM.

**Q.** What about the GI50 [18] of the same molecule?
**A.** Its GI50 is 21 µM.

**Q.** And the TGI [18]?
**A.** Its TGI is > 100 µM.

**Q.** And the GI50 [19]?
**A.** The GI50 was 41.4 µM.

**Q.** What about the TGI [19] of the same molecule?
**A.** The TGI was > 100 µM.

**Q.** And the GI50 [20]?
**A.** The GI50 was 36.2 µM.

**Q.** What about the TGI [20] of the same molecule?
**A.** Its TGI is > 100 µM.

**Q.** What about the GI50 [21] of the same molecule?
**A.** Its GI50 is 25.6 µM.

**Q.** What about the TGI [21] of the same molecule?
**A.** Its TGI is > 100 µM.

**Q.** What about the GI50 [22] of the same molecule?
**A.** Its GI50 is 15.6 µM.

**Q.** What about the TGI [22] of the same molecule?
**A.** The TGI was 38 µM.

**Q.** And the GI50 [23]?
**A.** The GI50 was 22 µM.

**Q.** And the TGI [23]?
**A.** Its TGI is 70.5 µM.

**Q.** And the GI50 [24]?
**A.** The GI50 was 25.4 µM.

**Q.** And the TGI [24]?
**A.** The TGI was 75.3 µM.

**Q.** And the GI50 [25]?
**A.** Its GI50 is 18.7 µM.

**Q.** And the TGI [25]?
**A.** Its TGI is 44.1 µM.

**Q.** What about the GI50 [26] of the same molecule?
**A.** Its GI50 is 13.3 µM.

**Q.** What about the TGI [26] of the same molecule?
**A.** Its TGI is 49.3 µM.

**Q.** What about the GI50 [27] of the same molecule?
**A.** Its GI50 is 18.7 µM.

**Q.** What about the TGI [27] of the same molecule?
**A.** Its TGI is 78.3 µM.

**Q.** What about the GI50 [28] of the same molecule?
**A.** Its GI50 is 24.7 µM.

**Q.** And the TGI [28]?
**A.** The TGI was 53.8 µM.

**Q.** And the GI50 [29]?
**A.** The GI50 was 27.8 µM.

**Q.** What about the TGI [29] of the same molecule?
**A.** Its TGI is 70.6 µM.

**Q.** And the GI50 [30]?
**A.** Its GI50 is 32.3 µM.

**Q.** What about the TGI [30] of the same molecule?
**A.** Its TGI is > 100 µM.

**Q.** And the GI50 [31]?
**A.** Its GI50 is 41.4 µM.

**Q.** What about the TGI [31] of the same molecule?
**A.** Its TGI is > 100 µM.

**Q.** And the GI50 [32]?
**A.** Its GI50 is 43.3 µM.

**Q.** What about the TGI [32] of the same molecule?
**A.** Its TGI is > 100 µM.

**Q.** And the GI50 [33]?
**A.** The GI50 was 30.1 µM.

**Q.** And the TGI [33]?
**A.** Its TGI is > 100 µM.

**Q.** And the GI50 [34]?
**A.** The GI50 was 15.8 µM.

**Q.** And the TGI [34]?
**A.** Its TGI is 58.4 µM.

**Q.** What about the GI50 [35] of the same molecule?
**A.** Its GI50 is 25.8 µM.

**Q.** What about the TGI [35] of the same molecule?
**A.** Its TGI is 75.4 µM.

**Q.** What about the GI50 [36] of the same molecule?
**A.** The GI50 was 25.6 µM.

**Q.** And the TGI [36]?
**A.** Its TGI is > 100 µM.

**Q.** And the GI50 [37]?
**A.** The GI50 was 29.8 µM.

**Q.** And the TGI [37]?
**A.** The TGI was 88 µM.

**Q.** And the GI50 [38]?
**A.** Its GI50 is 19.2 µM.

**Q.** And the TGI [38]?
**A.** The TGI was 38.9 µM.

**Q.** And the GI50 [39]?
**A.** Its GI50 is 20.6 µM.

**Q.** And the TGI [39]?
**A.** Its TGI is 55.1 µM.

**Q.** What about the GI50 [40] of the same molecule?
**A.** The GI50 was 20 µM.

**Q.** And the TGI [40]?
**A.** Its TGI is 53.6 µM.

**Q.** What about the GI50 [41] of the same molecule?
**A.** Its GI50 is 39.5 µM.

**Q.** What about the TGI [41] of the same molecule?
**A.** Its TGI is > 100 µM.

**Q.** And the GI50 [42]?
**A.** Its GI50 is 36.1 µM.

**Q.** What about the TGI [42] of the same molecule?
**A.** The TGI was > 100 µM.

**Q.** And the GI50 [43]?
**A.** Its GI50 is 19.6 µM.

**Q.** What about the TGI [43] of the same molecule?
**A.** The TGI was 49 µM.

**Q.** And the GI50 [44]?
**A.** The GI50 was 23.9 µM.

**Q.** What about the TGI [44] of the same molecule?
**A.** The TGI was 89.2 µM.

**Q.** What about the GI50 [45] of the same molecule?
**A.** The GI50 was 29.5 µM.

**Q.** And the TGI [45]?
**A.** The TGI was > 100 µM.

**Q.** What about the GI50 [46] of the same molecule?
**A.** Its GI50 is 28.7 µM.

**Q.** What about the TGI [46] of the same molecule?
**A.** Its TGI is 93.3 µM.

**Q.** And the GI50 [47]?
**A.** Its GI50 is 28.3 µM.

**Q.** And the TGI [47]?
**A.** The TGI was > 100 µM.

**Q.** And the GI50 [48]?
**A.** The GI50 was 23.6 µM.

**Q.** And the TGI [48]?
**A.** The TGI was > 100 µM.

**Q.** What about the GI50 [49] of the same molecule?
**A.** The GI50 was 17.4 µM.

**Q.** What about the TGI [49] of the same molecule?
**A.** Its TGI is 47.4 µM.
